This note sets out measurements from ChEMBL document CHEMBL5113518, “Discovery of a Novel G-Quadruplex and Histone Deacetylase (HDAC) Dual-Targeting Agent for the Treatment of Triple-Negative Breast Cancer” (J Med Chem, 2022).

As a reminder, the ΔTm is the shift of the melting midpoint relative to a reference. What is called IC50 is the concentration that gives 50% inhibition. What is called T/C is the result in the treated group divided by that in the control group, in per cent. For orientation: Kd means the equilibrium constant for the complex coming apart.

The source made the active and inactive calls. The rule behind the calls is not given here. Where only a bound is given, the exact number is not on record here.

In experiment [1] the target is Quadruplex DNA. Nature of the experiment: Binding affinity to 5' FAM-labeled c-myc G4-quadruplex DNA Pu22 (unknown origin) by fluorescence quench assay. It is filed as nucleic-acid assay.
The subject of experiment [2] is Quadruplex DNA. As to conditions: dose 1.0 µM.
Description: Binding affinity to 5' FAM and 3' TAMRA-labeled c-myc G4-quadruplex DNA Pu22 (unknown origin) assessed as change in melting temperature at 1 uM by fluorescence resonance energy transfer assay
In experiment [3] the target is Histone deacetylase. Kind of experiment: Inhibition of HDAC in human HeLa nuclear extract incubated for 30 mins by fluorescence-based Glo-luminescence assay. It is filed as cell-based.
In experiment [4] the test system is BT-549. Kind of experiment: Cytotoxicity against human BT-549 cells harboring wild type BRCA1 and wild type BRCA2 assessed as reduction in cell viability. It is filed as functional, cell-based.
Experiment [5] has as its system MDA-MB-231. Nature of the experiment: Antitumor activity against human MDA-MB-231 cells xenografted in BALB/c-nu/nu mouse assessed as increment ratio at 10 mg/kg, ip measured for 31 days. Format: functional. As to conditions: time 31 day. For orientation: Xenograft models place foreign cells or tissue in a host animal.
In experiment [6] the test system is MDA-MB-468. Nature of the experiment: Cytotoxicity against human MDA-MB-468 cells harboring wild type BRCA1 and BRCA2 mutant reduction in assessed as cell viability. Format: functional, cell-based.
Experiment [7] has as its target Quadruplex DNA. Nature of the experiment: Binding affinity to 5' FAM-labeled […] (unknown origin) assessed as dissociation constant by surface plasmon resonance assay. It is filed as nucleic-acid assay. (SPR reads the build-up and loss of mass on a sensor chip optically.)
For experiment [8], the system named is SUM-159-PT. Kind of experiment: Cytotoxicity against human SUM159PT cells harboring wild type BRCA1 and wild type BRCA2 assessed as reduction in cell viability. It is filed as functional, cell-based.
In experiment [9] the test system is Quadruplex DNA. Kind of experiment: Binding affinity to 5' FAM and 3' TAMRA-labeled c-myc G4-quadruplex DNA duplex (unknown origin) assessed as change in melting temperature by fluorescence resonance energy transfer assay. Format: nucleic-acid assay.
Experiment [10] concerns Quadruplex DNA. Kind of experiment: Binding affinity to 5' FAM and 3' TAMRA-labeled […] (unknown origin) assessed as change in melting temperature by fluorescence resonance energy transfer assay. It is filed as nucleic-acid assay.
Experiment [11] concerns Quadruplex DNA. Kind of experiment: Binding affinity to 5' FAM and 3' TAMRA-labeled c-myc G4-quadruplex DNA HTG21 (unknown origin) assessed as change in melting temperature by fluorescence resonance energy transfer assay. It is filed as nucleic-acid assay.
For experiment [12], the target named is Histone deacetylase. Nature of the experiment: Inhibition of HDAC in human MDA-MB-231 cells incubated for 45 mins by luminescence assay. Format: cell-based.
The target in experiment [13] is Quadruplex DNA. Kind of experiment: Binding affinity to 5' FAM-labeled c-myc G4-quadruplex DNA HTG21 (unknown origin) assessed as dissociation constant by surface plasmon resonance assay. Format: nucleic-acid assay.
Experiment [14] in a line: Stabilization of DNA Pu22 (unknown origin ) single strand assessed as G4-quadruplex formation in absence of potassium ions by spectrum based circular dichroism analysis. As to conditions: dose <= 30.0 µM; DDE = dose-dependent effect.
The subject of experiment [15] is MDA-MB-231. Nature of the experiment: Cytotoxicity against human MDA-MB-231 cells harboring wild type BRCA1 and wild BRCA2 assessed as reduction in cell viability. Format: functional, cell-based.
In experiment [16] the test system is MDA-MB-231. Kind of experiment: Antitumor activity against human MDA-MB-231 cells xenografted in BALB/c-nu/nu mouse assessed as tumor growth inhibition at 10 mg/kg, ip measured for 31 days. It is filed as functional. As to conditions: MDA-MB-231, 744 h, time 31 day, read-out: TGI.
Experiment [17] is described as follows: Stabilization of DNA Pu22 (unknown origin ) single strand assessed as G4-quadruplex formation up to 30 uM in presence of potassium ions by spectrum based circular dichroism analysis. On the technique in general: Circular dichroism is widely used to follow secondary structure.
Experiment [18] deals with Quadruplex DNA. Nature of the experiment: Binding affinity to 5' FAM-labeled c-myc G4-quadruplex DNA Pu22 (unknown origin) assessed as dissociation constant by surface plasmon resonance assay. It is filed as nucleic-acid assay.

Regarding `CN(C)CCCNC(=O)c1ccc(/C=C2\CCn3c2nc2cc(N4CCN(CCCCCCCC(=O)Nc5ccccc5N)CC4)c(F)cc2c3=O)cc1`, the DC50 in experiment [1] stood at 1.2 µM. Besides, the ΔTm in experiment [2] was found to be 8.2 °C.

For the compound `Nc1ccccc1NC(=O)c1ccc(CNC(=O)OCc2cccnc2)cc1`, the thermal shift (ΔTm) in experiment [2] was 0.1 °C.

As to `CN(C)CCCNc1cc2nc3n(c(=O)c2cc1F)CC/C3=C\c1ccc(C(=O)Nc2ccccc2N)cc1`, the DC50 in [1] was determined as 0.2 µM. For the same compound, the ΔTm in experiment [2] was found to be 2.3 °C. Further, the half-maximal inhibitory concentration (IC50) in experiment [3] amounted to 5.8 µM.

In turn, `CN(C)CCCNC(=O)c1ccc(/C=C2\CCn3c2nc2ccc(OCCCCCCC(=O)NO)cc2c3=O)cc1.Cl` came in with a DC50 in experiment [1] of 0.9 µM. Moreover, the ΔTm in experiment [2] was found to be 4.4 °C. Besides, in experiment [3], the IC50 was 0.06 µM.

On to `Cl.O=C(CCCCCCNC(=O)c1ccc(/C=C2\CCn3c2nc2cc(NCCCN4CCCC4)c(F)cc2c3=O)cc1)NO`, for which the DC50 in [1] is 3 µM. Besides, the ΔTm in experiment [2] was 3.2 °C. Further, the IC50 in [3] is 0.05 µM.

Compound `CN(C)CCCNC(=O)c1ccc(/C=C2\CCn3c2nc2cc(NCCCCCCC(=O)NO)c(F)cc2c3=O)cc1.Cl` yielded a DC50 in experiment [1] of 0.3 µM. Besides, the shift in melting temperature (ΔTm) in experiment [2] came out at 7.2 °C. In [3], this compound registered an IC50 of 0.07 µM.

In experiment [1], `CN(C)CCCNC(=O)c1ccc(/C=C2\CCn3c2nc2cc(N4CCN(Cc5ccc(/C=C/C(=O)NO)cc5)CC4)c(F)cc2c3=O)cc1.Cl` came in with a DC50 of 0.2 µM. Moreover, in [2], the ΔTm amounted to 1.8 °C. Also, in experiment [3], the half-inhibitory concentration (IC50) was 1.9 µM.

In turn, `CN(C)CCCNC(=O)c1ccc(/C=C2\CCn3c2nc2cc(N4CCN(CCCCCCC(=O)NO)CC4)c(F)cc2c3=O)cc1.Cl` yielded a DC50 in experiment [1] of 1.7 µM. In addition, the ΔTm in experiment [2] is 15.9 °C. In [3], the half-inhibitory concentration (IC50) amounted to 2.1 µM.

For `Nc1ccccc1NC(=O)c1ccc(/C=C2\CCn3c2nc2cc(NCCCN4CCCC4)c(F)cc2c3=O)cc1`, the DC50 in [1] is 0.6 µM. For the same compound, the ΔTm in [2] is 0.6 °C. In experiment [3], this compound came in with a concentration for half-maximal inhibition (IC50) of 8.6 µM.

Compound `CN(C)CCCNC(=O)c1ccc(/C=C2\CCn3c2nc2cc(N4CCN(CCCC(=O)NO)CC4)c(F)cc2c3=O)cc1` yielded a DC50 in experiment [1] of 1.3 µM. In addition, the thermal shift (ΔTm) in experiment [2] is 16.4 °C.

In experiment [1], `CN(C)CCCNC(=O)c1ccc(/C=C2\CCn3c2nc2cc(N4CCN(Cc5ccc(C(=O)NO)cc5)CC4)c(F)cc2c3=O)cc1.Cl` returned a DC50 of 0.2 µM. The ΔTm in experiment [2] is 4.3 °C. Further, in experiment [3], the IC50 is 2.5 µM.

In turn, `CN1CCN(c2cc3nc4n(c(=O)c3cc2F)CC/C4=C\c2ccc(C(=O)Nc3ccccc3N)cc2)CC1` registered a DC50 in [1] of 0.2 µM. Besides, the ΔTm in experiment [2] is 0.3 °C.

As to `O=C(CCCCCCC(=O)Nc1ccccc1)NO` [VORINOSTAT], the IC50 in experiment [4] and in experiment [6] was 2.3 µM each time. For the same compound, the T/C in [5] amounted to 39.3%.

In [1], `CN(C)CCCNC(=O)c1ccc(/C=C2\CCn3c2nc2cc(N4CCN(Cc5ccc(/C=C/C(=O)Nc6ccccc6N)cc5)CC4)c(F)cc2c3=O)cc1` returned a DC50 of 0.3 µM. Besides, the ΔTm in experiment [2] amounted to 0.7 °C. In addition, the 50% inhibitory concentration (IC50) in experiment [3] turned out to be 8.1 µM.

For the compound `CN(C)CCCNC(=O)c1ccc(/C=C2\CCn3c2nc2cc(N4CCN(CCCCC(=O)NO)CC4)c(F)cc2c3=O)cc1.Cl`, the DC50 in [1] worked out at 0.8 µM. For the same compound, in experiment [2], the thermal shift (ΔTm) turned out to be 16.7 °C. This compound registered an IC50 in experiment [3] of 1.5 µM.

In experiment [1], `CN1CCN(c2cc3nc4n(c(=O)c3cc2F)CC/C4=C\c2ccc(C(=O)NO)cc2)CC1` had a DC50 of 2.9 µM. Besides, the ΔTm in experiment [2] turned out to be 5.7 °C.

Take `CCN(CC)CCCNC(=O)c1ccc(/C=C2\CCn3c2nc2cc(NCCCN4CCCC4)c(F)cc2c3=O)cc1`: the Kd was 3.6 µM in [7], over 10 µM in [13] and 1.8 µM in [18]. Besides, the DC50 in experiment [1] turned out to be 1.4 µM. Moreover, the half-inhibitory concentration (IC50) in experiment [8] was 47.3 µM; in experiment [4] it was 14.6 µM; in experiment [12], over 10 µM; in experiment [15], 10.7 µM; in [6], 47.1 µM. Moreover, the ΔTm worked out at 17.4 °C in [2], 1.8 °C in [9], 6.4 °C in [10] and 7.3 °C in experiment [11]. In addition, the T/C in experiment [5] turned out to be 69.7%. Moreover, the Activity entry in [14] was “Dde”. In addition, in experiment [16], the inhibition in vivo at 10 mg/kg was found to be 48.2%. For the same compound, in [17], the result was Active.

As to `CN(C)CCCNC(=O)c1ccc(/C=C2\CCn3c2nc2cc(N4CCN(CCCCCC(=O)NO)CC4)c(F)cc2c3=O)cc1.Cl`, the DC50 in experiment [1] turned out to be 0.9 µM. Moreover, the ΔTm in experiment [2] is 17.3 °C. In experiment [3], this compound registered an IC50 of 1.6 µM.
